Patent publication EP0643964A2 (priority 1993, dated 1995)
“And” between values parts separate entries of the source, which are not always exact repeats. Equal values may be shown once. Read-outs that look alike come from different tables or passages of the source.

How the values were obtained:
[1] = test system: patient with an history of ulcerative colitis; assay: Intravenous treatment of a patient with ulcerative colitis; type: in vivo, human
[2] = test system: HIV (RETROVIRUS); assay: Evolution of HIV infected patients (CD4+ counts); type: in vivo, human; conditions: for number of CD4+ cells in blood: individual patients 1-4
Text: One group experiment consisted in 6 volunteer patients males and females aged between 22 and 35. […] Patient 5 and patient 6, just received saline by same route and frequency as treated patients.
The evolution of the disease in the analyzed patients was done by counting the number of CD4+ cells/mm³ blood and the CD4/CD8 ratio. Blood samples were collected every 15 days.
Treatment of patients started after the fourth sample extraction.

[3] = test system: P815 H-2^d mastocytoma cells; assay: In vitro cell growth, P815 seeded petri dishes (Trypan blue count); type: cell-based
Experimental: EL4 h-2^b murine T-Lymphoma (2x10⁶ cells) and P815 H-2^d mastocytoma cells (2x10⁶ cells) (kindly provided by Prof. Gideon Berke at the Weizmann Institute of Sciences, Rehovot, Israel) suspended in 2 ml RPMI-HEPES supplemented with […] and 10% fetal calf serum (FCS) were seeded in every one of 10 petri dishes for each of five groups for the EL4 cells and two groups for the P815 cells. […] Group E dishes were co-cultivated with 0.1 ml RPMI-HEPES alone.
Petri dishes were incubated for 72 hours at 37°C in 5% CO₂ atmosphere. The cells harvested from the petri dishes were then centrifuged, diluted with 1% Trypan blue and counted on a Neubauer chamber.

[4] = test system: canine parvovirus (CPV); type: in vivo, dogs; conditions: for Viral titers (hemagglutination): Treated group (A): 5 ml 2% lidocaine i.v. twice a day 2 days; for Viral titers of enteric homogenates: Treated group (A), titers obtained on Vero cells
[5] = test system: Cryptococcus neoformans; assay: Cryptococcoses in experimentally infected mice; type: in vivo, Swiss mice; conditions: 0.1 ml 0.2% lidocaine i.p. twice a day
Experimental: Animals: 5-7 month old female Swiss mice were used. Experimental schedule: mice received by intraperitoneal route 0.5 ml of a suspension of 10⁷ Cryptococcus neoformans grown in Sabureaud medium.
Two animals of each group (experimental and control groups) were sacrificed at 2, 5 and 10 days post-infection and samples of liver, pancreas, brain, spleen, lung, kidney and bowel were obtained for microscopic examination.

SMILES: CCN(CC)CC(=O)Nc1c(C)cccc1C [lidocaine]
- Diarrhea ([1]; 4 i.v. doses each 12 hours per week, 4 weeks (5 ml, 2% solution), during the treatment): diarrhea disappeared
- Colonoscopy ([1]; 5th week): congestive and edematous mucosa; no erosion could be observed
- histopathological diagnosis ([1]; biopsy, 5th week): quiescent ulcerative colitis
- CD4 counting ([2]; all the treated patients, controls decreased): increase or no decrease
- number of CD4+ cells in blood ([2]; sample 1 (every 2 weeks), before treatment): 480 cells/mm³ and 294 cells/mm³ and 230 cells/mm³ and 500 cells/mm³
- number of CD4+ cells in blood ([2]; sample 2, before treatment): 475 cells/mm³ and 294 cells/mm³ and 238 cells/mm³ and 496 cells/mm³
- number of CD4+ cells in blood ([2]; sample 3, before treatment): 475 cells/mm³ and 280 cells/mm³ and 235 cells/mm³ and 496 cells/mm³
- number of CD4+ cells in blood ([2]; sample 4, last before treatment): 480 cells/mm³ and 270 cells/mm³ and 234 cells/mm³ and 485 cells/mm³
- Alive Cells ± STD ([3]; Group A, 0.1 ml 0.005% lidocaine, 72 hours, control 4.66E+06): 3.77E+06 ± 0.11 millions of cells
- Dead cells ([3]; Group A, 0.1 ml 0.005% lidocaine, control 2.33E+06): 1.96E+06
- inhibition at 0.005 % ([3]; Mus musculus, P815, 72 h, read-out: I/C: Percentual increment over control growth): 19.1%
- Mortality ([4]; CPV infected dogs, group A (treated), all controls died by 60 hours): no mortality
- Viral titers (hemagglutination) ([4]; 12 hrs. after first signs): 0 inverse of the last dilution which agglutinated sheep red cells
- Viral titers (hemagglutination) ([4]; 24 hrs.): 16 inverse of the last dilution which agglutinated sheep red cells
- Viral titers (hemagglutination) ([4]; 36 hrs.): 320 inverse of the last dilution which agglutinated sheep red cells
- Viral titers (hemagglutination) ([4]; 48 hrs.): 320 inverse of the last dilution which agglutinated sheep red cells
- Viral titers (hemagglutination) ([4]; 60 hrs.): 160 inverse of the last dilution which agglutinated sheep red cells
- Viral titers (hemagglutination) ([4]; 72 hrs.): 40 inverse of the last dilution which agglutinated sheep red cells
- Viral titers (hemagglutination) ([4]; 84 hrs.): 40 inverse of the last dilution which agglutinated sheep red cells
- Viral titers (hemagglutination) ([4]; 96 hrs.): 40 inverse of the last dilution which agglutinated sheep red cells
- Viral titers of enteric homogenates ([4]; 12 hrs.): 2.1 x 10^2 TCID₅₀/ml
- Viral titers of enteric homogenates ([4]; 24 hrs.): 0.1 x 10^4 TCID₅₀/ml
- Viral titers of enteric homogenates ([4]; 36 hrs.): 0.5 x 10^7 TCID₅₀/ml
- Viral titers of enteric homogenates ([4]; 48 hrs.): 0.3 x 10^7 TCID₅₀/ml
- Viral titers of enteric homogenates ([4]; 60 hrs.): 2.3 x 10^5 TCID₅₀/ml
- Viral titers of enteric homogenates ([4]; 72 hrs.): 6.3 x 10^4 TCID₅₀/ml
- Viral titers of enteric homogenates ([4]; 84 hrs.): 5.8 x 10^4 TCID₅₀/ml
- Viral titers of enteric homogenates ([4]; 96 hrs.): 6.0 x 10^4 TCID₅₀/ml
- Signs of the disease ([4]; group A, after 48 hours from the beginning of treatment): none of the animals showed signs of the disease
- Histological aspect of enteric mucosa ([4]; group A, by 72 hours post-treatment): normal histological aspect
- Microscopic examination of organs ([5]; 48 hours post-infection): only a generalized vascular congestion
- Microscopic examination of organs ([5]; 5 days post-infection): discrete mononuclear cell infiltrate in liver parenchyma and swelling of pancreatic tissue, with absence of inflammatory cells
- Microscopic examination of organs ([5]; day 10 pi): scarce granulomas in hepatic parenchyma
